For 19 compounds, MIC results are on record in ChEMBL document CHEMBL1142803, “Synthesis and in vitro study of novel 7-O-acyl derivatives of Oroxylin A as antibacterial agents” (2005).

One experiment relates to Bacillus subtilis. As to the kind of experiment: Minimum inhibitory concentration against gram positive Bacillus subtilis (MTCC 441) using broth dilution method. It counts as functional.
The next experiment deals with Klebsiella aerogenes. As to the kind of experiment: Minimum inhibitory concentration against gram negative Klebsiella aerogenes (MTCC 39) using broth dilution method. It counts as functional. (Dilution methods test growth across graded concentrations, often in twofold steps.)
A further experiment relates to Staphylococcus aureus. Description: Minimum inhibitory concentration against gram positive Staphylococcus aureus (MTCC 96) using broth dilution method. Format: functional.
Experiment [1] can be described thus: Minimum inhibitory concentration against gram negative Chromobacterium violaceum (MTCC 2656) using broth dilution method. It counts as functional.
For the next experiment, the system named is Bacillus sp. As to the kind of experiment: Minimum inhibitory concentration against gram positive Bacillus sphaericus (MTCC 11) using broth dilution method. It counts as functional, Lysinibacillus sphaericus. As to conditions: Bacillus sp. (in: firmicutes).

In brackets after ≈: the same amount, converted by molar mass.

As for `CCCCCC(=O)Oc1cc2oc(-c3ccccc3)cc(=O)c2c(O)c1OC`, the minimal inhibitory concentration (MIC) – broadly, the least concentration at which growth counts as inhibited – came out at 25 mg/L (≈ 65.4 µM) against Bacillus subtilis; 25 mg/L (≈ 65.4 µM) against Klebsiella aerogenes; 25 mg/L (≈ 65.4 µM) in the experiment on Staphylococcus aureus; 25 mg/L (≈ 65.4 µM) in experiment [1]; 12.5 mg/L (≈ 32.7 µM) with Bacillus sp..
In the case of `CCOc1cc2oc(-c3ccccc3)cc(=O)c2c(O)c1OC`, the MIC against Bacillus subtilis was determined as 25 mg/L (≈ 80 µM); against Klebsiella aerogenes, 25 mg/L (≈ 80 µM); against Staphylococcus aureus it was 50 mg/L (≈ 160 µM); in experiment [1], 25 mg/L (≈ 80 µM); in the experiment on Bacillus sp., 25 mg/L (≈ 80 µM).
For `CCOc1cc2oc(-c3ccccc3)cc(=O)c2c(OCC)c1OC`, the MIC with Bacillus subtilis is 25 mg/L (≈ 73.4 µM); against Klebsiella aerogenes, 25 mg/L (≈ 73.4 µM); in the experiment on Staphylococcus aureus it was 25 mg/L (≈ 73.4 µM); in experiment [1] it was 25 mg/L (≈ 73.4 µM); in the experiment with Bacillus sp. it was 12.5 mg/L (≈ 36.7 µM).
Turning to `COc1c(OC(=O)c2ccccc2Cl)cc2oc(-c3ccccc3)cc(=O)c2c1O`, the MIC against Bacillus subtilis came to 25 mg/L (≈ 59.1 µM); in the experiment on Klebsiella aerogenes it was 25 mg/L (≈ 59.1 µM); with Staphylococcus aureus it was 12.5 mg/L (≈ 29.6 µM); in experiment [1], 25 mg/L (≈ 59.1 µM); against Bacillus sp., 25 mg/L (≈ 59.1 µM).
In the case of `CCCCCCCCCCCCCC(=O)Oc1cc2oc(-c3ccccc3)cc(=O)c2c(O)c1OC`, the MIC worked out at 25 mg/L (≈ 50.5 µM) against Bacillus subtilis; 50 mg/L (≈ 101 µM) in the experiment on Klebsiella aerogenes; 50 mg/L (≈ 101 µM) in the experiment on Staphylococcus aureus; 25 mg/L (≈ 50.5 µM) in experiment [1]; 12.5 mg/L (≈ 25.3 µM) in the experiment with Bacillus sp..
On to `CCCC(=O)Oc1cc2oc(-c3ccccc3)cc(=O)c2c(O)c1OC`, for which the MIC with Bacillus subtilis was 25 mg/L (≈ 70.6 µM); in the experiment with Klebsiella aerogenes it was 25 mg/L (≈ 70.6 µM); in the experiment on Staphylococcus aureus it was 25 mg/L (≈ 70.6 µM); in experiment [1] it was 6.25 mg/L (≈ 17.6 µM); against Bacillus sp., 6.25 mg/L (≈ 17.6 µM).
Take `COc1c(OC(=O)c2ccc(C)cc2)cc2oc(-c3ccccc3)cc(=O)c2c1O`: the MIC with Bacillus subtilis came to 50 mg/L (≈ 124 µM); against Klebsiella aerogenes, 25 mg/L (≈ 62.1 µM); against Staphylococcus aureus, 50 mg/L (≈ 124 µM); in experiment [1] it was 50 mg/L (≈ 124 µM); in the experiment on Bacillus sp., 25 mg/L (≈ 62.1 µM).
For the compound `COc1cc(C(=O)Oc2cc3oc(-c4ccccc4)cc(=O)c3c(O)c2OC)cc(OC)c1OC`, the MIC in the experiment with Bacillus subtilis came to 12.5 mg/L (≈ 26.1 µM); against Klebsiella aerogenes, 12.5 mg/L (≈ 26.1 µM); in the experiment with Staphylococcus aureus it was 25 mg/L (≈ 52.3 µM); in experiment [1], 6.25 mg/L (≈ 13.1 µM); against Bacillus sp., 25 mg/L (≈ 52.3 µM).
For the compound `CCCCCCCCCCCCCCCC(=O)Oc1cc2oc(-c3ccccc3)cc(=O)c2c(O)c1OC`, the MIC in the experiment with Bacillus subtilis stood at 25 mg/L (≈ 47.8 µM); against Klebsiella aerogenes, 12.5 mg/L (≈ 23.9 µM); in the experiment on Staphylococcus aureus it was 25 mg/L (≈ 47.8 µM); in experiment [1], 25 mg/L (≈ 47.8 µM); in the experiment on Bacillus sp., 25 mg/L (≈ 47.8 µM).
As to `COc1c(OC(=O)c2ccccc2)cc2oc(-c3ccccc3)cc(=O)c2c1O`, the MIC in the experiment on Bacillus subtilis was 12.5 mg/L (≈ 32.2 µM); in the experiment on Klebsiella aerogenes, 25 mg/L (≈ 64.4 µM); against Staphylococcus aureus it was 25 mg/L (≈ 64.4 µM); in experiment [1], 12.5 mg/L (≈ 32.2 µM); in the experiment with Bacillus sp. it was 6.25 mg/L (≈ 16.1 µM).
Take `COc1c(O)cc2oc(-c3ccccc3)cc(=O)c2c1O` [OROXYLIN A]: the MIC in the experiment on Bacillus subtilis is 50 mg/L (≈ 176 µM); with Klebsiella aerogenes, 50 mg/L (≈ 176 µM); in the experiment with Staphylococcus aureus, 50 mg/L (≈ 176 µM); in experiment [1], 25 mg/L (≈ 87.9 µM); with Bacillus sp., 25 mg/L (≈ 87.9 µM).
Consider `COc1c(OC(C)=O)cc2oc(-c3ccccc3)cc(=O)c2c1O`, for which the MIC in the experiment with Bacillus subtilis worked out at 12.5 mg/L (≈ 38.3 µM); in the experiment with Klebsiella aerogenes, 50 mg/L (≈ 153 µM); with Staphylococcus aureus, 50 mg/L (≈ 153 µM); in experiment [1] it was 25 mg/L (≈ 76.6 µM); against Bacillus sp., 25 mg/L (≈ 76.6 µM).
In the case of `COc1c(OC(=O)C/C=C/c2ccccc2)cc2oc(-c3ccccc3)cc(=O)c2c1O`, the MIC with Bacillus subtilis came to 25 mg/L (≈ 58.4 µM); in the experiment on Klebsiella aerogenes it was 12.5 mg/L (≈ 29.2 µM); in the experiment with Staphylococcus aureus, 12.5 mg/L (≈ 29.2 µM); in experiment [1], 25 mg/L (≈ 58.4 µM); in the experiment on Bacillus sp., 12.5 mg/L (≈ 29.2 µM).
With `CN[C@@H]1[C@H](O[C@H]2[C@H](O[C@H]3[C@H](O)[C@@H](O)[C@H](N=C(N)N)[C@@H](O)[C@@H]3N=C(N)N)O[C@@H](C)[C@]2(O)C=O)O[C@@H](CO)[C@H](O)[C@H]1O` (stereo in doubt) [STREPTOMYCIN], the MIC against Bacillus subtilis turned out to be 6.25 mg/L (≈ 10.7 µM); against Klebsiella aerogenes, 1.56 mg/L (≈ 2.69 µM); in the experiment with Staphylococcus aureus it was 6.25 mg/L (≈ 10.7 µM); in experiment [1] it was 3.12 mg/L (≈ 5.37 µM); with Bacillus sp., 12.5 mg/L (≈ 21.5 µM).
`CC1(C)S[C@@H]2[C@H](NC(=O)COc3ccccc3)C(=O)N2[C@H]1C(=O)O` [PENICILLIN V]: the MIC with Bacillus subtilis is 1.56 mg/L (≈ 4.46 µM); in the experiment with Klebsiella aerogenes it was 6.25 mg/L (≈ 17.8 µM); in the experiment on Staphylococcus aureus, 1.56 mg/L (≈ 4.46 µM); in experiment [1], 12.5 mg/L (≈ 35.7 µM); in the experiment on Bacillus sp. it was 3.12 mg/L (≈ 8.92 µM).
Turning to `COc1cc2oc(-c3ccccc3)cc(=O)c2c(OC)c1OC` [BAICALEIN TRIMETHYL ETHER], the minimum inhibitory concentration (MIC) stood at 50 mg/L (≈ 160 µM) in the experiment with Bacillus subtilis; 50 mg/L (≈ 160 µM) against Klebsiella aerogenes; 25 mg/L (≈ 80 µM) against Staphylococcus aureus; 25 mg/L (≈ 80 µM) in experiment [1]; 25 mg/L (≈ 80 µM) in the experiment on Bacillus sp..
For `CCCCCCCCCCCC(=O)Oc1cc2oc(-c3ccccc3)cc(=O)c2c(O)c1OC`, the MIC stood at 25 mg/L (≈ 53.6 µM) in the experiment on Bacillus subtilis; 12.5 mg/L (≈ 26.8 µM) with Klebsiella aerogenes; 12.5 mg/L (≈ 26.8 µM) in the experiment on Staphylococcus aureus; 25 mg/L (≈ 53.6 µM) in experiment [1]; 12.5 mg/L (≈ 26.8 µM) against Bacillus sp..
Take `CCCCCCCCCCCCCCCCCC(=O)Oc1cc2oc(-c3ccccc3)cc(=O)c2c(O)c1OC`: the minimum inhibitory concentration (MIC) with Bacillus subtilis came out at 12.5 mg/L (≈ 22.7 µM); with Klebsiella aerogenes it was 25 mg/L (≈ 45.4 µM); with Staphylococcus aureus it was 25 mg/L (≈ 45.4 µM); in experiment [1], 12.5 mg/L (≈ 22.7 µM); against Bacillus sp., 12.5 mg/L (≈ 22.7 µM).
On to `COc1cc2oc(-c3ccccc3)cc(=O)c2c(O)c1OC` [MOSLOFLAVONE], for which the MIC against Bacillus subtilis was 25 mg/L (≈ 83.8 µM); against Klebsiella aerogenes it was 50 mg/L (≈ 168 µM); with Staphylococcus aureus it was 50 mg/L (≈ 168 µM); in experiment [1] it was 25 mg/L (≈ 83.8 µM); against Bacillus sp. it was 12.5 mg/L (≈ 41.9 µM).
